Data as given in the NIST ThermoML archive (doi:10.1016/j.jct.2012.07.009).
Numbers after ± are expanded uncertainties. Each block holds one compound with its values, some of them ahead of it.

Assay: an = ratio of the nth substance listed
Settings: 298.15 K, 101 kPa, Liquid, Vibrating tube method

mass density (a1 = 0.0025): 998.08 ± 0.15 kg/m3
mass density (a1 = 0.0053): 998.93 ± 0.15 kg/m3
mass density (a1 = 0.0101): 1000.45 ± 0.15 kg/m3
mass density (a1 = 0.0134): 1001.53 ± 0.15 kg/m3
mass density (a1 = 0.016): 1002.32 ± 0.15 kg/m3
Compound: O=C1CNC(=O)CN1 [2,5-diketopiperazine] + O

mass density (a1 = 0.1072): 1039.03 ± 0.16 kg/m3
mass density (a1 = 0.1494): 1051.67 ± 0.16 kg/m3
mass density (a1 = 0.1778): 1060.02 ± 0.17 kg/m3
mass density (a1 = 0.2042): 1068.38 ± 0.17 kg/m3
mass density (a1 = 0.2232): 1074.06 ± 0.17 kg/m3
mass density (a1 = 0.2433): 1080.28 ± 0.17 kg/m3
Compound: NCC(=O)O [2-aminoacetic acid] + O

mass density (a1 = 0.1079): 1027.42 ± 0.16 kg/m3
mass density (a1 = 0.1403): 1040.98 ± 0.16 kg/m3
mass density (a1 = 0.1768): 1056.44 ± 0.17 kg/m3
mass density (a1 = 0.1982): 1065.68 ± 0.17 kg/m3
mass density (a1 = 0.2153): 1072.61 ± 0.17 kg/m3
mass density (a1 = 0.2301): 1077.43 ± 0.17 kg/m3
Compound: O=C(O)CNCC(=O)O [N-(carboxymethyl)glycine] + O
